Marks after values point to notes of the source that are not given here.

For one assay, the system named is ACCase. Kind of assay: ACCase enzyme assay on crude cell extracts. In kind it is biochemical, Brassica napus. The protocol: All chemicals were obtained from Sigma and radioisotopes from American Radiolabeled Chemicals. ACCase activity was measured as the acetyl-CoA dependent incorporation of ^14C—NaHC03 into acid and stable products. Crude cell extracts were prepared by grinding fresh cells in 3 volumes (w/v) of 50 mM Tris-Cl, pH 7.5, 100 mM KCl, 5 mM MgCl2, 1 mM DTT, 0.1% TritonX-100, 10% glycerol, and plant protease inhibitor cocktail (Sigma). Homogenate was gently mixed on ice for 10 min and then centrifuged for 5 min at 3000 g. Desalting of extracts was done with PD-10 columns (GE Life Sciences). […] Reactions were initiated by the addition of 5 μlL cell extract and were stopped by the addition of 15 μL 12 N HCL. The contents were dried completely at 55° C. and the solids were resuspended in 30 μL water and counted by liquid scintillation spectroscopy. Minus acetyl-CoA controls were always included. Assays went for 30 min, except when measuring the effects of metabolites (10 min). Metabolites were added to the reaction immediately after cell extract to preserve labile thioester bonds. FFA stock solutions were made in ethanol and acyl-CoAs were suspended in water.

A further assay concerns B. napus cells. In words: Quantification of free fatty acid, acyl-ACP and acyl-CoA pools in cells. The format is cell-based, Brassica napus. The conditions noted are these: after three hours of Tween-80 feeding. As for the experimental part:
Free fatty acids were extracted from tissue by quenching ˜300 mg of frozen cells in 2 mL boiling isopropanol for 5 min. Once cooled, 2 mL of 0.9% NaCl was added and lipids were extracted twice with 4 mL of hexane. Neutral lipids were separated by TLC and free fatty acids were scraped, made into FAMEs, and analyzed by GC-FID or GC-MS as described above. Acyl-CoAs were extracted from ˜15 mg FW of cells and quantified as previously described (Larson and Graham 2001, Plant J, 25, 115-125). Acyl-ACPs were extracted and quantified as previously described (Kopka, Ohlrogge and Jaworski 1995, Anal Biochem, 224, 51-60) with the following modifications: 1) Internal standards used were 11:0-CoA (Sigma) and 17:0—ACP made from Spinach ACP as previously described (Broadwater and Fox 1999, Protein Expr Purif, 15, 314-326). 2) Fully dissolving TCA precipitated proteins required three extractions with MOPS buffer rather than just one.
1986 Plant Physiol, 82, 771-779). Free fatty acids can be activated by esterification to CoA or ACP before being deposited in cellular lipids. Steady state pools acyl-ACP and acyl-CoA as well as free fatty acids (FFA) were measured in cells fed Tween-80. After three hours of feeding, 18:1 FFA appeared where there was none detected in untreated cells (FIG. 9a). […] In a separate experiment designed to distinguish the incorporation of fatty acids from Tween from secondary effects of feedback inhibition, FFA and acylACPs were analyzed in cells fed ^13C-oleoyl-Tween. […] First, the in vivo concentrations of these intermediates were calculated based on the range of values in FIG. 9 and the water content of the cells. […] However, considering that acyl-ACPs are restricted to the plastid, the volume of which in developing embryos was determined to be 10% of the cell (Mansfield and Briarty 1992, Can J Bot, 70, 151-164), the estimate increased to 5-10 μM. […] Thioesterase activity was measured using the same conditions as the ACCase assay. […]

Tween-80: the ACCase activity in the assay on ACCase (crude extracts of cells fed 10 mM Tween-80 for three hours, mean of four repeats ± SD) is on record as 1.73 ± 0.10^a nmol min^−1 mg^−1. Also, in the assay with ACCase (included in assay of crude cell extract, FFA up to 10 μM), the “effect on ACCase activity” value is “no effect”. For the same substance, the “change in amount of 18:1-ACP and 18:1-CoA” value in the assay on B. napus cells is given as “double in amount”.

For the origin of these results see patent US20140230091A1, “MODIFIED PLANTS WITH INCREASED OIL CONTENT” (BROOKHAVEN SCIENCE ASSOCIATES, LLC, priority 2011, published 2014).
